{
  "source": "PubChem BioAssay (NCI)",
  "assay_in_all_cases": "DTP human tumour cell line panel, 48 h",
  "key": {"[1]": {"system": "EKVX NSCLC"}, "[2]": {"system": "SR leukemia"}, "[3]": {"system": "ACHN renal"}, "[4]": {"system": "IGROV1 ovarian"}, "[5]": {"system": "NCI-H460 lung"}, "[6]": {"system": "SK-OV-3 ovarian"}, "[7]": {"system": "LOX IMVI melanoma"}, "[8]": {"system": "SK-MEL-28 melanoma"}, "[9]": {"system": "MDA-MB-435"}, "[10]": {"system": "CAKI-1 renal"}, "[11]": {"system": "MALME-3M melanoma"}, "[12]": {"system": "SNB-75 CNS"}, "[13]": {"system": "RPMI-8226 leukemia"}, "[14]": {"system": "SF-295 CNS"}, "[15]": {"system": "K-562 leukemia"}, "[16]": {"system": "HCC-2998 colon"}, "[17]": {"system": "M14 melanoma"}, "[18]": {"system": "HL-60(TB) leukemia"}, "[19]": {"system": "SK-MEL-2 melanoma"}, "[20]": {"system": "HOP-62 NSCLC"}, "[21]": {"system": "RXF 393 renal"}, "[22]": {"system": "MDA-N"}, "[23]": {"system": "OVCAR-3 ovarian"}, "[24]": {"system": "OVCAR-4 ovarian"}, "[25]": {"system": "NCI/ADR-RES ovarian"}, "[26]": {"system": "PC-3 prostate"}, "[27]": {"system": "SK-MEL-5 melanoma"}, "[28]": {"system": "NCI-H23 lung"}, "[29]": {"system": "SF-268 CNS"}, "[30]": {"system": "KM12 colon"}, "[31]": {"system": "OVCAR-5 ovarian"}, "[32]": {"system": "MOLT-4 leukemia"}, "[33]": {"system": "UACC-62 melanoma"}, "[34]": {"system": "HCT-15 colon"}, "[35]": {"system": "SNB-19 CNS"}, "[36]": {"system": "HOP-92 NSCLC"}, "[37]": {"system": "COLO 205 colon"}, "[38]": {"system": "MDA-MB-231 breast"}, "[39]": {"system": "BT-549 breast"}, "[40]": {"system": "HCT-116 colon"}, "[41]": {"system": "T-47D breast"}, "[42]": {"system": "UO-31 renal"}, "[43]": {"system": "NCI-H226 lung"}, "[44]": {"system": "HS 578T breast"}, "[45]": {"system": "OVCAR-8 ovarian"}, "[46]": {"system": "HT29 colon"}, "[47]": {"system": "CCRF-CEM leukemia"}, "[48]": {"system": "SF-539 CNS"}, "[49]": {"system": "SW-620 colon"}, "[50]": {"system": "MCF7 breast"}, "[51]": {"system": "A549 NSCLC"}, "[52]": {"system": "UACC-257 melanoma"}, "[53]": {"system": "TK-10 renal"}, "[54]": {"system": "SN12C renal"}, "[55]": {"system": "DU-145 prostate"}, "[56]": {"system": "NCI-H522 lung"}, "[57]": {"system": "786-0 renal"}, "[58]": {"system": "A498 renal"}, "[59]": {"system": "U251 CNS"}},
  "note": "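Exposure lasted 48 hours, with cells grown in 96-well plates and compounds tested at five concentrations. Definition used: TGI = concentration required for complete inhibition of growth.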",
  "data": [
    {"smiles": "COc1cc(CNCc2cc(OC)c(OC)c(OC)c2)cc(OC)c1OC", "values": [
      {"measurement": "TGI", "setting": "[1]", "result": "> 10", "unit": "µM"},
      {"measurement": "TGI", "setting": "[2]", "result": "> 9.12", "unit": "µM"},
      {"measurement": "TGI", "setting": "[3]", "result": "> 10", "unit": "µM"},
      {"measurement": "TGI", "setting": "[4]", "result": "> 10", "unit": "µM"},
      {"measurement": "TGI", "setting": "[5]", "result": "> 10", "unit": "µM"},
      {"measurement": "TGI", "setting": "[6]", "result": "> 10", "unit": "µM"},
      {"measurement": "TGI", "setting": "[7]", "result": "> 10", "unit": "µM"},
      {"measurement": "TGI", "setting": "[8]", "result": "> 10", "unit": "µM"},
      {"measurement": "TGI", "setting": "[9]", "result": "> 10", "unit": "µM"},
      {"measurement": "TGI", "setting": "[10]", "result": "> 10", "unit": "µM"},
      {"measurement": "TGI", "setting": "[11]", "result": "> 10", "unit": "µM"},
      {"measurement": "TGI", "setting": "[12]", "result": "> 10", "unit": "µM"},
      {"measurement": "TGI", "setting": "[13]", "result": "> 10", "unit": "µM"},
      {"measurement": "TGI", "setting": "[14]", "result": "> 10", "unit": "µM"},
      {"measurement": "TGI", "setting": "[15]", "result": "> 7.36", "unit": "µM"},
      {"measurement": "TGI", "setting": "[16]", "result": "> 10", "unit": "µM"},
      {"measurement": "TGI", "setting": "[17]", "result": "> 10", "unit": "µM"},
      {"measurement": "TGI", "setting": "[18]", "result": "> 6.74", "unit": "µM"},
      {"measurement": "TGI", "setting": "[19]", "result": "> 10", "unit": "µM"},
      {"measurement": "TGI", "setting": "[20]", "result": "> 10", "unit": "µM"},
      {"measurement": "TGI", "setting": "[21]", "result": "> 10", "unit": "µM"},
      {"measurement": "TGI", "setting": "[22]", "result": "> 10", "unit": "µM"},
      {"measurement": "TGI", "setting": "[23]", "result": "> 10", "unit": "µM"},
      {"measurement": "TGI", "setting": "[24]", "result": "> 10", "unit": "µM"},
      {"measurement": "TGI", "setting": "[25]", "result": "> 10", "unit": "µM"},
      {"measurement": "TGI", "setting": "[26]", "result": "> 10", "unit": "µM"},
      {"measurement": "TGI", "setting": "[27]", "result": "> 10", "unit": "µM"},
      {"measurement": "TGI", "setting": "[28]", "result": "> 10", "unit": "µM"},
      {"measurement": "TGI", "setting": "[29]", "result": "> 10", "unit": "µM"},
      {"measurement": "TGI", "setting": "[30]", "result": "> 10", "unit": "µM"},
      {"measurement": "TGI", "setting": "[31]", "result": "> 10", "unit": "µM"},
      {"measurement": "TGI", "setting": "[32]", "result": "> 10", "unit": "µM"},
      {"measurement": "TGI", "setting": "[33]", "result": "> 10", "unit": "µM"},
      {"measurement": "TGI", "setting": "[34]", "result": "> 10", "unit": "µM"},
      {"measurement": "TGI", "setting": "[35]", "result": "> 10", "unit": "µM"},
      {"measurement": "TGI", "setting": "[36]", "result": "> 10", "unit": "µM"},
      {"measurement": "TGI", "setting": "[37]", "result": "> 10", "unit": "µM"},
      {"measurement": "TGI", "setting": "[38]", "result": "> 10", "unit": "µM"},
      {"measurement": "TGI", "setting": "[39]", "result": "> 10", "unit": "µM"},
      {"measurement": "TGI", "setting": "[40]", "result": "> 10", "unit": "µM"},
      {"measurement": "TGI", "setting": "[41]", "result": "> 10", "unit": "µM"},
      {"measurement": "TGI", "setting": "[42]", "result": "> 10", "unit": "µM"},
      {"measurement": "TGI", "setting": "[43]", "result": "> 10", "unit": "µM"},
      {"measurement": "TGI", "setting": "[44]", "result": "> 10", "unit": "µM"},
      {"measurement": "TGI", "setting": "[45]", "result": "> 10", "unit": "µM"},
      {"measurement": "TGI", "setting": "[46]", "result": "> 10", "unit": "µM"},
      {"measurement": "TGI", "setting": "[47]", "result": 5.86, "unit": "µM"},
      {"measurement": "TGI", "setting": "[48]", "result": "> 10", "unit": "µM"},
      {"measurement": "TGI", "setting": "[49]", "result": "> 10", "unit": "µM"},
      {"measurement": "TGI", "setting": "[50]", "result": "> 10", "unit": "µM"},
      {"measurement": "TGI", "setting": "[51]", "result": "> 10", "unit": "µM"},
      {"measurement": "TGI", "setting": "[52]", "result": "> 10", "unit": "µM"},
      {"measurement": "TGI", "setting": "[53]", "result": "> 10", "unit": "µM"},
      {"measurement": "TGI", "setting": "[54]", "result": "> 10", "unit": "µM"},
      {"measurement": "TGI", "setting": "[55]", "result": "> 10", "unit": "µM"},
      {"measurement": "TGI", "setting": "[56]", "result": "> 6.46", "unit": "µM"},
      {"measurement": "TGI", "setting": "[57]", "result": "> 10", "unit": "µM"},
      {"measurement": "TGI", "setting": "[58]", "result": "> 10", "unit": "µM"},
      {"measurement": "TGI", "setting": "[59]", "result": "> 10", "unit": "µM"}
    ]}
  ]
}
